Source: PMC2528830 (British Journal of Pharmacology, 2008)
pEC50: −log10 of the molar value.

Experiments:
GPR119 [1] = target: T1, GPR119 (Homo sapiens, UniProt Q8TDV5); assay: cAMP accumulation in HEK293-GPR119 vs untransfected cells; format: cell-based
T1 sequence (Q8TDV5 1-335): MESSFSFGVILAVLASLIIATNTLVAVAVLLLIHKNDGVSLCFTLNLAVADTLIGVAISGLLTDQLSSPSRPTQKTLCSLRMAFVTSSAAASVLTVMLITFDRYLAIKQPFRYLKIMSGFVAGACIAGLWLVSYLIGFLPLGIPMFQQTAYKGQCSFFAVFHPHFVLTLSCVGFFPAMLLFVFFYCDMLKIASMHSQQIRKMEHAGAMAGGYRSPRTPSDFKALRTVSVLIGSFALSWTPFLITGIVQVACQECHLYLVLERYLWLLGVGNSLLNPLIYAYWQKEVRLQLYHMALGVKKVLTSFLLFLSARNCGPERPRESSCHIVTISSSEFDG

GPR119 [2] = target: T1, GPR119; assay: insulin secretion at […] in RINm5f-GPR119 vs parental RINm5f cells; format: cell-based

Row | pEC50 (GPR119 [1]) | Structure (SMILES) | insulin secretion at 10 μM in RINm5f-GPR119 vs parental RINm5f cells (GPR119 [2])
1 | 4.86 | CCCC[C@H]1CC[C@H](c2nc(-c3ccncc3)no2)CC1 [PSN375963] | 
2 |  | CCCCCCCC/C=C\CCCCCCCC(=O)NCCO [oleoylethanolamide] | RINm5f cells transfected with human GPR119 (RIN-119 cells) responded to OEA and had an increased response to OLPC
